Common to all, as to format: cell-based
The test system of one test is Citrobacter diversus. As to the kind of experiment: MIC against Gram-negative bacteria: Citrobacter diversus. To be noted: for MIC (μg/mL) C. diversus / MIC against C. diversus: Citrobacter diversus, 96-well plate, 5×10^5 CFU/mL, 37° C., 10 h. The gist of the method: (§1)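 Purified recombinant human EGF domain proteins are tested by broth dilution in LB against a 5×10^5 CFU/mL inoculum, with two-fold serial dilutions run in triplicate. Plates are incubated at 37° C with shaking, and the MIC is read as the lowest protein concentration without growth.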

The next test deals with Klebsiella pneumonia. As to the kind of experiment: MIC against Gram-negative bacteria: Klebsiella pneumonia. The settings on record: for MIC (μg/mL) K. pneumonia / MIC against K. pneumonia: Klebsiella pneumonia, 96-well plate, 5×10^5 CFU/mL, 37° C., 10 h. In outline:
as §1

A further test has as its system Enterobacter cloacae. As to the kind of experiment: MIC against Gram-negative bacteria: Enterobacter cloacae. The settings on record: for MIC (μg/mL) E. cloacae / MIC against E. cloacae: Enterobacter cloacae, 96-well plate, 5×10^5 CFU/mL, 37° C., 10 h. In outline: as §1
For the next test, the system named is Aeromonas hydrophila. As to the kind of experiment: MIC against Gram-negative bacteria: Aeromonas hydrophila. To be noted: for MIC (μg/mL) A. hydrophila / MIC against A. hydrophila: Aeromonas hydrophila, 96-well plate, 5×10^5 CFU/mL, 37° C., 10 h. The gist of the method: as §1
In another test the test system is Proteus mirabilis. As to the kind of experiment: MIC against Gram-negative bacteria: Proteus mirabilis. The settings on record: for MIC (μg/mL) P. mirabilis / MIC against P. mirabilis: Proteus mirabilis, 96-well plate, 5×10^5 CFU/mL, 37° C., 10 h. The gist of the method:
as §1

For a further test, the system named is Serratia marcescens. The experiment in a line: MIC against Gram-negative bacteria: Serratia marcescens. The settings on record: for MIC (μg/mL) S. marcescens / MIC against S. marcescens: Serratia marcescens, 96-well plate, 5×10^5 CFU/mL, 37° C., 10 h. The gist of the method:
as §1

For the next test, the system named is Proteus vulgaris. The experiment in a line: MIC against Gram-negative bacteria: Proteus vulgaris. The settings on record: for MIC (μg/mL) P. vulgaris / MIC against P. vulgaris: Proteus vulgaris, 96-well plate, 5×10^5 CFU/mL, 37° C., 10 h. The gist of the method:
as §1

The test system of the next test is E. coli BL21. As to the kind of experiment: MIC against Gram-negative bacteria: E. coli BL21. To be noted: E. coli BL21; for MIC (μg/mL) E. coli BL21 / MIC against E. coli BL21: 96-well plate, 5×10^5 CFU/mL, 37° C., 10 h. The gist of the method: as §1
Another test relates to Moraxella catarrhalis. As to the kind of experiment: MIC against Gram-negative bacteria: Moraxella catarrhalis. The settings on record: for MIC (μg/mL) M. catarrhalis / MIC against M. catarrhalis: Moraxella catarrhalis, 96-well plate, 5×10^5 CFU/mL, 37° C., 10 h. In outline:
as §1

The next test has as its system E. coli DH5α. As to the kind of experiment: Antibacterial activity: MIC and growth curve against E. coli DH5α in 96-well plate. The settings on record: minimal inhibitory concentration against E. coli DH5α; 96-well plate, 5×10^5 CFU/mL, 37° C., judged after 8 h. The gist of the method:
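Log-phase DH5α (OD600 about 0.5, 37° C, 185 rpm in LB) was pelleted, resuspended in fresh LB and seeded at 5×10^5 CFU/mL with recombinant protein at 50, 25 and 12.5 μg/mL (two-fold series), in triplicate. Plates were shaken at 175 rpm, 37° C, and OD600 was read every 30 min. MIC was the lowest concentration with no growth.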

For another test, the system named is Pseudomonas aeruginosa. As to the kind of experiment: MIC against Gram-negative bacteria: Pseudomonas aeruginosa. To be noted: for MIC (μg/mL) P. aeruginosa / MIC against P. aeruginosa: Pseudomonas aeruginosa, 96-well plate, 5×10^5 CFU/mL, 37° C., 10 h. The gist of the method: as §1

By MIC is commonly meant the lowest concentration found to suppress growth. A higher MIC goes with a less susceptible organism. Turning to “PRT904 (NTPDCTESSCFNGGTCVDGINSFTCLCPPGFTGSYCQ; listed as Homo sapiens)”, the minimal inhibitory concentration (MIC) in the test on Citrobacter diversus (C. diversus, 10 h cultivation at 37° C.) amounted to 12.5 µg/mL; in the test on Klebsiella pneumonia (K. pneumonia, 10 h cultivation at 37° C.), 12.5 µg/mL; against Enterobacter cloacae (E. cloacae, 10 h cultivation at 37° C.), 12.5 µg/mL; with Aeromonas hydrophila (A. hydrophila, 10 h cultivation at 37° C.) it was 25 µg/mL; against Proteus mirabilis (P. mirabilis, 10 h cultivation at 37° C.), 12.5 µg/mL; with Serratia marcescens (S. marcescens, 10 h cultivation at 37° C.), 25 µg/mL. The MIC amounted to 25 µg/mL against Proteus vulgaris (P. vulgaris, 10 h cultivation at 37° C.); 12.5 µg/mL with E. coli BL21 (10 h cultivation at 37° C.); 25 µg/mL against Moraxella catarrhalis (M. catarrhalis, 10 h cultivation at 37° C.); 50 µg/mL against E. coli DH5α; 25 µg/mL against Pseudomonas aeruginosa (P. aeruginosa, 10 h cultivation at 37° C.).
Consider “PRT110 (DIDECASSNGTLCAHICINTLGSYRCECREGYIREDDGKTCT; listed as Homo sapiens)”, for which the “MIC (μg/mL) C. diversus” value in the test on Citrobacter diversus is 12.5 µg/mL. Besides, the “MIC (μg/mL) K. pneumonia” value with Klebsiella pneumonia was determined as 50 µg/mL. Besides, the “MIC (μg/mL) E. cloacae” value in the test with Enterobacter cloacae is 12.5 µg/mL. For the same substance, the “MIC (μg/mL) A. hydrophila” value with Aeromonas hydrophila came to 50 µg/mL. In addition, in the test on Proteus mirabilis, the “MIC (μg/mL) P. mirabilis” value came to 12.5 µg/mL. Moreover, the “MIC (μg/mL) S. marcescens” value in the test on Serratia marcescens stood at 12.5 µg/mL. Further, the “MIC (μg/mL) P. vulgaris” value against Proteus vulgaris was found to be 12.5 µg/mL. In the test with E. coli BL21, the “MIC (μg/mL) E. coli BL21” value was determined as 12.5 µg/mL. In addition, in the test on Moraxella catarrhalis, the “MIC (μg/mL) M. catarrhalis” value was found to be 50 µg/mL. The MIC in the test with E. coli DH5α came out at 25 µg/mL. Further, the “MIC (μg/mL) P. aeruginosa” value in the test on Pseudomonas aeruginosa is 25 µg/mL.
Turning to “PRT1272 (DVDECVEGTDNCHIDAICQNTPRSYKCICKSGYTGDGKHCK; listed as Homo sapiens)”, the “MIC against C. diversus” value in the test on Citrobacter diversus is 50 µg/mL. Besides, the “MIC against K. pneumonia” value in the test on Klebsiella pneumonia is 50 µg/mL. Besides, in the test on Enterobacter cloacae, the “MIC against E. cloacae” value is 25 µg/mL. Moreover, the “MIC against A. hydrophila” value with Aeromonas hydrophila came to 12.5 µg/mL. Moreover, the “MIC against P. mirabilis” value against Proteus mirabilis was determined as 50 µg/mL. Besides, the “MIC against S. marcescens” value against Serratia marcescens amounted to 50 µg/mL. Moreover, in the test with Proteus vulgaris, the “MIC against P. vulgaris” value stood at 12.5 µg/mL. Further, the “MIC against E. coli BL21” value against E. coli BL21 was determined as 50 µg/mL. Moreover, in the test on Moraxella catarrhalis, the “MIC against M. catarrhalis” value came out at 12.5 µg/mL. For the same substance, the MIC with E. coli DH5α was 25 µg/mL. In addition, the “MIC against P. aeruginosa” value with Pseudomonas aeruginosa was 100 µg/mL.
For “PRT3 (DGDQCESNPCLNGGSCKDDINSYECWCPFGFEGKNCE; listed as Homo sapiens)”, the “MIC (μg/mL) C. diversus” value with Citrobacter diversus stood at 25 µg/mL. In addition, the “MIC (μg/mL) K. pneumonia” value with Klebsiella pneumonia amounted to 12.5 µg/mL. The “MIC (μg/mL) E. cloacae” value in the test on Enterobacter cloacae was determined as 12.5 µg/mL. Further, the “MIC (μg/mL) A. hydrophila” value in the test with Aeromonas hydrophila is 25 µg/mL. Further, the “MIC (μg/mL) P. mirabilis” value against Proteus mirabilis is 12.5 µg/mL. In the test on Serratia marcescens, the “MIC (μg/mL) S. marcescens” value was determined as 12.5 µg/mL. For the same substance, in the test on Proteus vulgaris, the “MIC (μg/mL) P. vulgaris” value turned out to be 25 µg/mL. Moreover, the “MIC (μg/mL) E. coli BL21” value against E. coli BL21 was 25 µg/mL. Further, the “MIC (μg/mL) M. catarrhalis” value in the test with Moraxella catarrhalis was 12.5 µg/mL. The substance also had an MIC against E. coli DH5α of 12.5 µg/mL. Further, the “MIC (μg/mL) P. aeruginosa” value in the test with Pseudomonas aeruginosa amounted to 25 µg/mL.
Turning to “PRT1258 (GRTCIETCAVNNGGCDRTCKDTATGVRCSCPVGFTLQPD; listed as Homo sapiens)”, the “MIC against C. diversus” value against Citrobacter diversus was found to be 50 µg/mL. In the test with Klebsiella pneumonia, the “MIC against K. pneumonia” value is 25 µg/mL. Further, the “MIC against E. cloacae” value against Enterobacter cloacae came to 12.5 µg/mL. Besides, the “MIC against A. hydrophila” value against Aeromonas hydrophila is 25 µg/mL. In addition, the “MIC against P. mirabilis” value against Proteus mirabilis was 50 µg/mL. The “MIC against S. marcescens” value against Serratia marcescens worked out at 12.5 µg/mL. For the same substance, the “MIC against P. vulgaris” value in the test with Proteus vulgaris came out at 25 µg/mL. The “MIC against E. coli BL21” value in the test with E. coli BL21 came to 25 µg/mL. Further, the “MIC against M. catarrhalis” value in the test with Moraxella catarrhalis is 12.5 µg/mL. This substance also returned a minimal inhibitory concentration (MIC) in the test on E. coli DH5α of 12.5 µg/mL. For the same substance, the “MIC against P. aeruginosa” value against Pseudomonas aeruginosa stood at 50 µg/mL.

The values above are taken from patent US9833497B2, “Human originated EGF domain proteins and use of the same” (CHENGDU SOURCEBIO LIMITED-LIABILITY COMPANY, priority 2013, dated 2017).
